Measurements from patent US10596118B2, “Solid dispersions” (Shionogi Inc., priority 2015, dated 2020).
In brackets after ≈: the same amount, converted by molar mass.

Tests used:
[1] = physchem; conditions: organic solvent or mixture, thermodynamic from solid
Description: In developing methods of evaluating the solubility of the various compositions produced in these studies, a common solvent was selected that was capable of dissolving both ospemifene and each of the hydrophilic carriers being evaluated. […] Thus, an incremental solvent addition method was used to estimate the solubility in methanol and ethanol co-solvent mixture.

[2] = physchem; conditions: water or buffered solutions, aqueous buffer
[3] = oral administration of a 60 mg dose; cited from earlier work
[4] = Micro dissolution in simulated GI fluids (FaSSIF, FeSSIF) and pH 6.8 phosphate buffer; conditions: for solubility in FeSSIF relative to FaSSIF: FeSSIF versus FaSSIF
Description: To investigate the in-vivo absorption process of ospemifene in the GI tract, a dissolution method using simulated GI fluids (FaSSIF and FeSSIF) was developed to simulate drug dissolution in-vivo. The abbreviation “FaSSIF” stands for fasted state simulated intestinal fluid, while the abbreviation “FeSSIF” stands for fed state simulated intestinal fluid. […] FaSSIF and FeSSIF media are commercially available from Biorelevant and were used according to the manufacturer's instructions.
Micro dissolution was conducted in a centrifuge vial containing 1.5 mL of dissolution medium (either FaSSIF or FeSSIF) at room temperature. […] The vials were centrifuged at 30 min, 1, 2 and 3 hour(s) at 14,000 rpm for one minute and 50 μL of supernatant was transferred to an HPLC vial and diluted with 50 μL acetonitrile and assayed by HPLC.
The detector was set at 235 nm. Two mobile phases were used, mobile phase A and mobile phase B. Mobile phase A was 800/200/40 (v/v/v) deionized water/acetonitrile/tetrahydrofuran and mobile phase B was 100% acetonitrile.
For drug content analysis, the same HPLC column and mobile phases were used but the flow rate of the mobile phases was 1 ml/min, the injection volume was 7 μL and the gradient program was as follows: […]

[5] = Solubility by shake flask method with HPLC analysis; conditions: thermodynamic from solid
Procedure: Solubility measurements of the solid dispersions and physical mixtures were performed using a shake flask method. Individual test samples comprising about 5 mg ospemifene, 30 mg of each physical mixture, or 30 mg of each solid dispersion, were mixed with 20 mL of an aqueous media (either water alone, 0.1N HCl, or a buffered aqueous solution comprising 50 mM phosphate, pH 6.8). The sample was agitated manually for 3 hours. Following mixing, a 1.5 mL sample was withdrawn to a micro-centrifuge tube and centrifuged at 12,000 rpm for 10 min. About 1 mL of supernatant was then transferred to a HPLC vial for HPLC analysis.
The solubilities of ospemifene solid dispersions, the control physical mixtures, and ospemifene alone were determined by HPLC in water, 0.1 N HCl, or 50 mM pH 6.8 buffer using a shake flask method, as described above.

[6] = poor water solubility and high permeability
[7] = Sun et al., 2012; cited from earlier work

SMILES	solubility ([1]; solubility in ethanol, ethanol) [µg/mL]	solubility ([1]; solubility in methanol, methanol) [µg/mL]	solubility [2] [µg/mL]	share of total dose eliminated via the fecal route [3] [%]	time the amount of drug in solution remains relatively stable ([4]; FeSSIF and FaSSIF) [h]	solubility in FeSSIF relative to FaSSIF ([4]; listed as micronized ospemifene)	solubility in FeSSIF relative to FaSSIF ([4]; listed as ospemifene alone)	solubility at 2 h ([4]; fassif, thermodynamic from solid) [µg/mL]	solubility ([4]; fessif, thermodynamic from solid) [µg/mL]	solubility ([4]; pH 6.8, aqueous buffer) [µg/mL]	solubility at 3 h ([5]; pH 6.8, aqueous buffer) [µg/mL]	solubility at 3 h ([5]; simulated gastric fluid) [µg/mL]	solubility at 3 h ([5]; water) [µg/mL]	BCS class [6]	maximum solubility enhancement observed with HPMCAS or PVP [7] [fold]
OCCOc1ccc(/C(=C(/CCCl)c2ccccc2)c2ccccc2)cc1 [Ospemifene (OSP), ospemifene]	~57000 (≈ 150000 µM)	~67000 (≈ 177000 µM)	< 0.3	75	2 to 3	about 4 fold	2-3 fold	10 (≈ 26.4 µM)	45 (≈ 119 µM)	< 10	< 0.03	< 0.03	0.04 (≈ 0.106 µM)	BCS class II	–
COc1ccc2c(c1)c(CC(=O)O)c(C)n2C(=O)c1ccc(Cl)cc1 [indomethacin]	–	–	–	–	–	–	–	–	–	–	–	–	–	–	9
